Experimental data published in patent publication US12065416B2, “cGAS antagonist compounds” (IMMUNESENSOR THERAPEUTICS, INC., priority 2016, dated 2024).

test system: cGAS activity in THP1 cells; test: Cellular assay: ISRE-Gaussia luciferase reporter THP1 cells transfected with ISD (Interferon Stimulatory DNA); type: cell-based; conditions: Homo sapiens, THP-1; ISRE-Gaussia luciferase reporter THP1 cells transfected with 2 μg/mL ISD, 16 hours; read-out: THP1-ISD (Inhibition of cGAS activity in THP1 cells, IC50)
Protocol: A reporter THP1 cell line harboring a gene encoding Gaussia Luciferase under the control of 5 tandem repeats of interferon-stimulated response elements (ISRE) was used to test inhibition of cGAS activity by synthetic compounds in human cells. These cells were plated on 96-well plates at 0.3×10^6/well and incubated with various concentrations of compounds or DMSO for 5 min, followed by transfection of 2 μg/mL of ISD (Interferon Stimulatory DNA, a 45 bp DNA oligo) or mock transfected using lipofectamine 2000 (Life Technology) method, according to manufacturer's instructions. 16 hours later, 15 μL of the media from each well is transferred to a new plate, 50 μL of solution containing 50 mM Hepes-NaOH, 50 mM NaCl, 10 mM EDTA, 1 μM of coeleanterazine was added to each well and luminescence was measured immediately. Fold increase in luminescence compared to mock transfection is plotted against concentrations of each compound, and IC50 is calculated using Graphpad. To evaluate the specificity of a compound, the same procedure was performed except that cells were transfected with 2 μg/mL poly(I:C) or infected with Sendai Virus (SeV) at 50 Unit/mL, which are known to activate the RIG-I-MAVS pathway. A specific inhibitory compound should inhibit interferon induction by DNA but have minimal effect on poly(I:C) or Sendai virus induced interferon reporter gene expression.

Row | Compound | IC50 [µM]
1 | COc1cc(/C=c2\sc3nccn3c2=O)c(Br)cc1O [Ex16] | 2.5 to 10
2 | CC(Oc1cc(/C=C2\SC(=O)N(C)C2=O)c(Br)c(F)c1O)c1cncnc1N (centres unmarked) [ExA18] | ≥ 10
3 | O=C1/C(=C/c2cc(OCc3cnc(Cl)nc3)c(O)cc2Br)Sc2ncccc21 [Ex115] | 2.5 to 10
4 | CCOc1cc(/C=C2\SC(=O)N(C)C2=O)c(Br)cc1O [Ex32] | ≤ 2.5

molecular target: T1, recombinant cGAS (aa147-522) (Homo sapiens, UniProt Q8N884); test: In vitro assay for inhibition of cGAS activity (ATP consumption, Kinase Glo); type: biochemical; conditions: 37° C. 20 minutes, read-out: Activity (Inhibition of cGAS enzyme activity in vitro, IC50)
T1 construct: recombinant cGAS (aa147-522); His6-SUMO (N, cleaved yes); made in house; host or cells: E. coli BL21/pLys
T1 sequence (Q8N884 147-522): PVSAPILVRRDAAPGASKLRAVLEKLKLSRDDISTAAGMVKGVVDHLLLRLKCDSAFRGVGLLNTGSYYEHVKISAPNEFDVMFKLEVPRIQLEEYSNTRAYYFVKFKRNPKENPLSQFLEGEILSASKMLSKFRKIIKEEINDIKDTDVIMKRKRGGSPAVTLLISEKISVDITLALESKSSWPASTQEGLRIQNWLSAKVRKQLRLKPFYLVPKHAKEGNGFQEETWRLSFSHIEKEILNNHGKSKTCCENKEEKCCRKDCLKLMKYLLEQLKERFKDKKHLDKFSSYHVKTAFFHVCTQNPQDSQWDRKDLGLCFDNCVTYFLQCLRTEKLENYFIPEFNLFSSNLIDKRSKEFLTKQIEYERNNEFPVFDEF
Protocol: cDNA encoding full-length or amino acids 147-520 of human cGAS is inserted into a modified pET28a vector containing an in-frame His6-SUMO tag. The E. coli strain BL21/pLys harboring the plasmid is induced with 0.5 mM IPTG at 18° C. overnight. His6-SUMO tag was removed by a SUMO proease following purification of the HiS-SUMO-cGAS as described previously (Sun et al, 2013, Science 339, 786).
A40 μL mixture containing 1.5 ng/μL of recombinant cGAS (aa147-522) and serial dilutions of a test compound or DMSO was added to a 96-well plate and incubated at 37° C. for 20 minutes. At the end of reaction, 20 μL of Kinase Glo (Promega) was added and chemiluminescence measured with a luminometer. Inhibitory effect of a compound is evaluated by plotting percentage of ATP consumption against logarithm of compound concentrations. IC50 value was calculated using Graphpad (Sigma).

Row | Compound | IC50 [nM]
5 | COc1cc(/C=c2\sc3nccn3c2=O)c(Br)cc1O [Ex16] | ≤ 500
6 | CC(Oc1cc(/C=C2\SC(=O)N(C)C2=O)c(Br)c(F)c1O)c1cncnc1N (centres unmarked) [ExA18] | 500 to 10000
7 | O=C1/C(=C/c2cc(OCc3cnc(Cl)nc3)c(O)cc2Br)Sc2ncccc21 [Ex115] | ≤ 500
8 | CCOc1cc(/C=C2\SC(=O)N(C)C2=O)c(Br)cc1O [Ex32] | ≤ 500
9 | O=C1NC(=O)/C(=C/c2ccncc2)S1 [Ex2] | ≥ 10000
10 | CN1C(=O)S/C(=C\c2cc(OCc3cnc(-c4cccnc4)nc3)c(O)cc2Br)C1=O [Ex96] | 500 to 10000
11 | CSc1ncc(COc2cc(/C=C3\SC(=O)N(C)C3=O)c(Br)cc2O)cn1 [Ex144] | 500 to 10000
12 | CCC(Oc1cc(/C=C2\SC(=O)N(C)C2=O)c(Br)c(F)c1O)c1cnc(Cl)nc1 (centres unmarked) [ExB31] | 500 to 10000
13 | CN1C(=O)S/C(=C\c2cc(OCc3cnc(N4CCOCC4)nc3)c(O)cc2Br)C1=O [Ex166] | ≥ 10000
14 | CN1C(=O)S/C(=C\c2cc(OCc3ccc(=O)[nH]c3)c(O)cc2Br)C1=O [Ex125] | 500 to 10000
15 | CC(Oc1cc(/C=C2\SC(=O)N(C)C2=O)c(Br)cc1O)c1cnc(N)nc1 (centres unmarked) [Ex84] | ≤ 500
16 | COc1nc(SC)ncc1COc1cc(/C=C2\SC(=O)N(C)C2=O)c(Br)cc1O [Ex99] | 500 to 10000
17 | CN1C(=O)S/C(=C\c2cc(Oc3ccncc3)c(O)cc2Br)C1=O [Ex230] | ≥ 10000
18 | CN1C(=O)S/C(=C\c2cc(OCc3ccnc(N)n3)c(O)cc2Br)C1=O [Ex138] | 500 to 10000
19 | COc1cc(/C=C2\SC(=O)N(C)C2=O)c(Br)cc1NS(=O)(=O)C(F)(F)F [Ex60] | 500 to 10000
20 | COc1cc(/C=C2\Sc3ncccc3C2=O)c(C)cc1O [Ex76] | 500 to 10000
21 | CN1C(=O)S/C(=C\c2cc(Oc3cccc4cnccc34)c(O)cc2Br)C1=O [ExB25] | ≥ 10000
22 | CN1CCN(c2ncc(COc3cc(/C=C4\SC(=O)N(C)C4=O)c(Br)cc3O)cn2)CC1 [Ex167] | 500 to 10000
23 | CN1C(=O)S/C(=C\c2cc(OCc3ccnc(N)c3)c(O)cc2Br)C1=O [Ex133] | 500 to 10000
24 | CN1C(=O)S/C(=C\c2cc(OCc3cnc(C4CCNCC4)nc3)c(O)cc2Br)C1=O [Ex95] | 500 to 10000
25 | COc1cc(/C=C2\Sc3ncccc3C2=O)c(Br)c(Br)c1O [Ex47] | 500 to 10000
26 | COc1cc(/C=C2\SC(=O)N(C)C2=O)c(C#N)cc1O [Ex205] | 500 to 10000
27 | COc1cc(/C=C/C=C2\SC(=O)N(C)C2=O)c(Br)cc1O [Ex37] | 500 to 10000
28 | CN1C(=O)S/C(=C\c2cc(C(C)(F)F)c(O)cc2Br)C1=O [Ex210] | 500 to 10000
29 | COc1cc(/C=c2\sc3n(c2=O)CCN=3)c(Cl)cc1O [Ex41] | 500 to 10000
30 | CN1C(=O)S/C(=C\c2cc(OCc3cnc(N)nc3C(F)(F)F)c(O)cc2Br)C1=O [Ex172] | ≤ 500

Row | Compound | IC50 [nM]
31 | Cc1ncc(C(C)Oc2cc(/C=C3\SC(=O)N(C)C3=O)c(Br)cc2O)cn1 (centres unmarked) [Ex180] | 500 to 10000
32 | O=C1/C(=C/c2cc3nn[nH]c3cc2Br)Sc2ncccc21 [Ex78] | ≤ 500
33 | CN1C(=O)S/C(=C\c2cc(Oc3cccc(O)c3N)c(O)cc2Br)C1=O [ExB12] | ≥ 10000
34 | CN1C(=O)S/C(=C\c2cc(CC(F)(F)F)c(O)cc2Br)C1=O [ExB20] | 500 to 10000
35 | O=C1/C(=C/c2cc3oc(=O)[nH]c3cc2Br)Sc2ncccc21 [Ex26] | 500 to 10000
36 | CN1C(=O)S/C(=C\c2cc3c(-c4ccc(N)cc4)c[nH]c3cc2Br)C1=O [ExB14] | 500 to 10000
37 | CN1C(=O)S/C(=C\c2cc(OCc3ccn(Cc4ccccc4)c(=O)c3)c(O)cc2Br)C1=O [Ex91] | 500 to 10000
38 | CN1C(=O)S/C(=C\c2cc(OCc3ccc(NC(=O)c4ccccn4)nc3)c(O)cc2Br)C1=O [Ex56] | 500 to 10000
39 | CC(=O)Nc1ncc(S(=O)(=O)Nc2cc(Br)c(/C=C3\SC(=O)N(C)C3=O)cc2OCc2ccccc2)s1 [Ex62] | 500 to 10000
40 | CN1C(=O)S/C(=C\c2cc(Oc3ccc(=O)[nH]c3)c(O)cc2Br)C1=O [Ex231] | 500 to 10000
41 | CN1C(=O)S/C(=C\c2cc(OCc3cnc(NC(=O)c4ccncc4)nc3)c(O)cc2Br)C1=O [Ex161] | ≤ 500
42 | CN1C(=O)S/C(=C\c2cc(OCc3cncc(N)c3)c(O)cc2Br)C1=O [Ex132] | 500 to 10000
43 | O=C1NC(=O)/C(=C/c2cncnc2)S1 [Ex8] | ≥ 10000
44 | CC(Cc1cnc(N)nc1)Oc1cc(/C=C2\SC(=O)N(C)C2=O)c(Br)c(F)c1O (centres unmarked) [ExB9] | 500 to 10000
45 | CN1C(=O)S/C(=C\c2cc(CCc3ccc([S+](C)[O-])cc3)c(O)cc2Br)C1=O (centres unmarked) [ExB38] | ≥ 10000
46 | Cc1ncc(COc2cc(/C=C3\SC(=O)N(C)C3=O)c(Br)cc2O)cn1 [Ex142] | ≤ 500
47 | CC(Oc1cc(/C=C2\Sc3ncccc3C2=O)c(Br)cc1O)c1cnc(Cl)nc1 (centres unmarked) [Ex121] | ≤ 500
48 | CN1C(=O)S/C(=C\c2cc(OCc3cnc(C4CC4)nc3)c(O)cc2Br)C1=O [Ex94] | 500 to 10000
49 | COc1cc(/C=C2\SC(=O)N(C)C2=O)c(Br)cc1Oc1cnc(NCc2ccncc2)s1 [Ex206] | 500 to 10000
50 | O=C1/C(=C/c2cc(OCc3cnc(NCc4ccccn4)nc3)c(O)cc2Br)Sc2ncccc21 [Ex198] | ≤ 500
51 | CC(Oc1cc(/C=C2\SC(=O)N(C)C2=O)c(Br)cc1O)c1cnc(NCCO)nc1 (centres unmarked) [Ex181] | 500 to 10000
52 | CN1C(=O)S/C(=C\c2cc(OCc3cccc4cnccc34)c(O)cc2Br)C1=O [Ex173] | 500 to 10000
53 | CSc1ccc(CCc2cc(/C=C3\SC(=O)N(C)C3=O)c(Br)cc2O)cc1 [ExB15] | 500 to 10000
54 | CN1C(=O)S/C(=C\c2cc(OCc3cnc(-n4cccn4)nc3)c(O)cc2Br)C1=O [Ex169] | 500 to 10000
55 | CN1C(=O)S/C(=C\c2cc(OCc3cnc(NCc4ccccn4)nc3)c(O)c(F)c2Br)C1=O [Ex188] | 500 to 10000
56 | CN1C(=O)S/C(=C\c2cc(Oc3ccccc3)c(O)cc2Br)C1=O [Ex27] | 500 to 10000

Row | Compound | IC50 [nM]
57 | Cc1cnccc1/C=C1\SC(=O)NC1=O [Ex3] | ≤ 500
58 | Cc1nc(N)ncc1COc1cc(/C=C2\Sc3ncccc3C2=O)c(Br)c(F)c1O [ExA8] | ≤ 500
59 | COc1cc(/C=C2\Sc3cnccc3C2=O)c(Br)cc1O [Ex49] | ≤ 500
60 | CCc1cc(/C=C2\SC(=O)N(C)C2=O)c(Br)cc1O [Ex58] | 500 to 10000
61 | COc1nc(N)ncc1COc1cc(/C=C2\SC(=O)N(C)C2=O)c(Br)cc1O [Ex222] | 500 to 10000
62 | CN1C(=O)S/C(=C\c2cc(OCCc3ccncc3)c(O)cc2Br)C1=O [Ex179] | 500 to 10000
63 | C#Cc1cc(O)c(OC)cc1/C=C1\SC(=O)N(C)C1=O [Ex19] | ≥ 10000
64 | COc1cc(/C=C2\SC(=O)N(C)C2=O)c(F)cc1O [Ex29] | ≥ 10000
65 | COc1cc(/C=C2\Sc3nccnc3C2=O)c(Br)cc1O [Ex50] | 500 to 10000
66 | COc1cc2c(cc1O)CC/C2=C1/SC(=O)N(C)C1=O [Ex13] | ≥ 10000
67 | CSc1cc(/C=C2\SC(=O)N(C)C2=O)c(Br)cc1O [Ex69] | 500 to 10000
68 | CC(C)COc1cc(/C=C2\SC(=O)N(C)C2=O)c(Br)cc1O [Ex85] | 500 to 10000
69 | CN1C(=O)S/C(=C\c2cc(CCc3cnc(N)nc3)c(O)cc2Br)C1=O [ExB41] | 500 to 10000
70 | Cc1nc(N)ncc1C(C)Oc1cc(/C=C2\SC(=O)N(C)C2=O)c(Br)cc1O (centres unmarked) [Ex183] | 500 to 10000
71 | COc1cc(/C=C2\SC(=O)N(C)C2=O)c(Br)cc1OCc1ccncc1 [Ex203] | 500 to 10000
72 | CN1C(=O)S/C(=C\c2cc(OCc3cnc(-n4ccnc4)nc3)c(O)cc2Br)C1=O [Ex168] | 500 to 10000
73 | CN1C(=O)S/C(=C\c2cc3nn[nH]c3cc2Br)C1=O [Ex36] | ≥ 10000
74 | CN1C(=O)S/C(=C\c2cc(OCc3cnc(Nc4cccnc4)nc3)c(O)cc2Br)C1=O [Ex159] | 500 to 10000
75 | COc1cc(/C=c2\sc3n(c2=O)CCCN=3)c(Cl)cc1O [Ex43] | 500 to 10000
76 | COc1cc(/C=C2\SC(=O)N(C)C2=O)c(Br)cc1NS(=O)(=O)c1ccc(C)cc1 [Ex24] | ≥ 10000
77 | O=C1/C(=C/c2ccc(O)cc2Br)Sc2ncccc21 [Ex71] | ≤ 500
78 | COc1cc(/C=C2\SC(=O)N(C)C2=O)c(Br)cc1Oc1ccnc2ccccc12 [Ex204] | 500 to 10000
79 | CN1C(=O)S/C(=C\c2cc(OCc3cnc(N4CCCC4)nc3)c(O)cc2Br)C1=O [Ex163] | ≥ 10000
80 | COc1cc(/C=C2\SC(=O)N(C)C2=O)c(Br)c(Cl)c1O [Ex34] | 500 to 10000
